According to a melting point compilation (Tetko et al.; mined from patent text by program, amines drawn as free bases though some values may be those of a salt):

| melting point | SMILES |
| --- | --- |
| 100 to 102 °C | CCn1ccc(C2(c3cccc(-c4cncnc4)c3)N=C(N)N(C)C2=O)c1 (stereo unspecified) |
| 173 to 175 °C | CCOC(=O)c1cc(Cl)cc(NCS(=O)(=O)c2ccc(Cl)cc2)c1Cl |
| 182 to 183 °C | Cc1noc(NS(=O)(=O)c2ccccc2-c2ccc(Cn3c(=O)oc4ccccc43)cc2)c1C |
| 138 to 143 °C | COc1ccc(Cn2c(=O)c3c(Cl)cc(Cl)cc3n(Cc3ccccc3)c2=O)cc1 |
| 78 to 81 °C | COc1ccc(C2=NN(CCCOc3ccccc3)C(=O)[C@H]3CCCC[C@@H]23)cc1OC (relative stereo) |
| 59 to 62.5 °C | Cc1ccc(S(=O)(=O)N(F)C(C)(C)C)cc1 |
| 95 to 100 °C | CCOP(=O)(CCN1CCC(N(C)S(=O)(=O)c2ccc(Nc3nccc(Nc4ccc(F)cc4)n3)cc2)CC1)OCC |
| 146 to 149 °C | CC1(C)CCc2cc(OCc3ccccc3)c(O)c([N+](=O)[O-])c2C1=O |
| 168 to 169 °C | O=C(NC(=S)N1CCC(=O)C(C(c2ccccc2)c2ccccc2)C1)c1ccccc1 (stereo unspecified) |
| 136 to 139 °C | Cc1nc(N2CCN(Cc3ccc(F)cc3)C2=O)sc1C#N |
| 180 to 181 °C | CC1CCCC1n1ncc(-c2ccc(S(C)(=O)=O)cc2)c(-c2ccc(F)cc2)c1=O (stereo unspecified) |
| 163 °C | c1ccc(-c2cnc3cc4ccccc4cc3n2)cc1 |
| 245 °C | Cc1ccc(S(=O)(=O)n2cc(C=O)c3ccc(C(=O)Nc4c(Cl)cncc4Cl)cc32)cc1 |
| 209 to 211 °C | O=C(Cc1ccc(Cl)cc1)Nc1cccc(-n2nc(C(F)(F)F)cc2C(F)(F)F)c1 |
| 230 to 232 °C | CC1CCc2c(N3CCC(Cc4ccccc4)CC3)c(F)cc3c(=O)c(C(=O)O)cn1c23 (stereo unspecified) |
| 105 to 107 °C | CN(CCc1ccccc1)C1CCN(C(=O)Nc2ccccc2)CC1 |
| 150 to 155 °C | Cc1ccc(Cc2cnc(NCCCN(Cc3ccccc3)c3ccc(Br)cn3)[nH]c2=O)cn1 |
| 193 to 195 °C | CNc1ccc(C(=O)Nc2cccc(-c3nc(NC)nc4cc(OC)c(OC)cc34)c2)cn1 |
| 180 to 182 °C | CCCSc1ncc(C(=O)N[C@@H](Cc2ccc(O)cc2)C(=O)OC)n1Cc1ccccc1Cl |
| 134 °C | O=C(OCC1CC1)c1ccc(OCCC2CCN(c3ccc(Cl)nn3)CC2)cc1 |
| 155 to 157 °C | COc1ccc(CN2Cc3cncn3C(c3ccc(C#N)cc3)C2=O)cc1 (stereo unspecified) |
| 193 to 195 °C | Cc1cc(-c2nc3ccccc3s2)ccc1N |
| 213 to 215 °C | Cc1cn(C)c2c1N(C(=O)C(C)N1CCCC1)c1ccccc1NC2=O (stereo unspecified) |
| 43.7 °C | Cc1ccc(Nc2ccc(OC(F)(F)F)cc2)cc1 |
| 145 to 146 °C | COC(=O)c1ccc(-c2ccc3cc4c(cc3c2)C(C)(C)CCC4(C)C)cc1O |

The remaining lines, values behind:

| SMILES | melting point |
| --- | --- |
| CN1CCc2c(c(P(=O)(O)O)cc3[nH]c(=O)c(=O)[nH]c23)C1 | > 325 °C |
| COc1ccc(C(=O)CC2CCCCCCC2=O)cc1 (stereo unspecified) | 54 to 56 °C |
| Nc1c(F)cc(-c2ccccc2)cc1Cl | 105 to 107 °C |
| CC(C)CC(NC(=O)C1CCCN1C(=O)OCc1ccccc1)OCC(=O)O (stereo unspecified) | 118 to 120 °C |
| CCCc1cccc2[nH]c(C(=O)OCC)cc(=O)c12 | 153 to 154 °C |
| C=CC[C@H]1CC(C(=O)O)=C[C@@H](OC(CC)CC)[C@@H]1NC(C)=O | 229 to 230 °C |
| O[C@@H](CNCCOc1ccc2oc(-c3ccon3)cc2c1)c1cccc(C(F)(F)F)c1 | 113 to 114 °C |
| O=C(C=P(c1ccccc1)(c1ccccc1)c1ccccc1)COc1ccccc1Cl | 107 to 109 °C |
| CCOc1cc(C=CC(C)=O)ccc1O | 98 to 100 °C |
| CCOC(=O)c1c(NCCCC(=O)c2ccccc2)c2c(Cl)cc(Cl)cc2n1C(=O)OC(C)(C)C | 110 to 111 °C |
| NC(=O)OC[C@H](Cc1ccccc1)NC(=O)OCc1ccccc1 | 121 to 128 °C |
| Cc1cc(C#N)cc(C(=O)Nc2ccc(Cl)cn2)n1 | 234 °C |
| COc1cc(N)c(Cl)cc1C(=O)NCCC1CN(Cc2ccccc2)CCO1 (stereo unspecified) | 68 to 72 °C |
| O=C(c1cccc(C(F)(F)F)c1)c1ccc[nH]1 | 54 to 56 °C |
| CC(=O)Cc1cccc(S(N)(=O)=O)c1 | 155 to 157 °C |
| CCOC(=O)C=Cc1cn(C(=O)OC(C)(C)C)c2cnc(-n3cncn3)cc12 | 178 to 181 °C |
| CCC1(C(=O)C=Cc2ccc(C(=O)O)cc2)CC1 | 184 °C |
| Cc1cc(Cl)cc(C(=O)NC2(C)CS(=O)(=O)C2)c1NC(=O)c1cc(OCC(F)(F)F)nn1-c1ncccc1Cl | > 250 °C |
| Cc1c(C)c2c(c(C)c1N)CC(C)(CN1CCC(O)(c3ccc(Cl)cc3)CC1)O2 (stereo unspecified) | 118 to 120 °C |
| COc1c(N(C)C)cc(CC(C#N)=CNc2ccccc2)cc1N(C)C(C)=O | 176 to 178 °C |
| CCOC(=O)CCc1c(O)ccc2c(=O)c3cc(C(=O)OC)ccc3oc12 | > 215 °C |
| COC(=O)c1ccc(N)c(C=C(Br)Br)c1 | 112 to 113 °C |
| CC(C)(C)c1nc(C(=O)c2ccccc2)nc(C(C)(C)C)c1O | 129 to 131 °C |

| SMILES | melting point |
| --- | --- |
| CC(C)(C)OC(=O)NCC(=O)N1CCC[C@H]1C(=O)O | 140 to 143 °C |
| COC1(c2cc(OCc3ccc4c(c3)OCCC4=NO)nc(N)n2)CCOCC1 | 224 to 228 °C |
| CC(C)CCCC(C)C1CCC2C3=CC=C4CC(O)C=CC4(C)C3CCC21C (stereo unspecified) | 126 to 127 °C |
| CNC(=O)c1ccccc1C(=O)NCSc1ccncc1 | 118 to 121 °C |
| O=C(C=CC(=O)OC(Cl)C(Cl)(Cl)Cl)OC(Cl)C(Cl)(Cl)Cl (stereo unspecified) | 144 °C |
| O=C(NCc1ccc2c(c1)OCO2)c1ccccc1 | 115 to 116 °C |
| C=C1SC(SCc2ccccc2C(=COC)C(=O)OC)=NC1(C)C | 101 °C |
| Cn1ncc(C(=O)Nc2cc(Cl)ccc2Cl)c1N | 190 to 191 °C |
| CCOC(=O)N1CCCCN1C(=S)Cl | 160 to 162 °C |
| COc1ccc(C2CCCCC2)cc1-c1csc(NC(=O)N2CCN(C[C@@H]3CCCN(C4CC4)C3)CC2)n1 | 88 °C |
| CN1CC(CCN2CCN(c3ccc(Br)cc3)CC2)OC1=O (stereo unspecified) | 125 to 127 °C |
| CCOC(=O)CCc1cccc(N(C)C)c1 | 94 to 98 °C |
| Nc1ncc2sc(=O)n(C3OC(CO)C(O)C3O)c2n1 (stereo unspecified) | 220 °C |
| CC(C)(C)c1cc(-c2nnc(C(N)=S)s2)cc(C(C)(C)C)c1O | 215 to 216 °C |
| Cc1nn(-c2cccc(N)c2)c2c1C(=O)CC(C)(C)C2 | 131 to 132 °C |
| O=[N+]([O-])c1ccc(NC2CCCCC2)c([N+](=O)[O-])c1 | 153 °C |
| CC(CCCc1ccccc1)c1cc2c(cc1O)C1=C(CCCC1=O)C(C)(C)O2 (stereo unspecified) | 186 to 188 °C |
| CSc1cc(C(C)(C)C)c(O)c(C(=O)O)c1C | 138 to 139 °C |
| Cn1nnnc1SCCCSc1nnnn1C | 142 to 144 °C |
| CN(C(=O)CN(C(=O)CNC(=O)Nc1cccc(CCO)c1)c1ccccc1)c1ccccc1 | 152 °C |
| CCOC(=O)c1c(C)n(C(=O)c2ccccc2)c2ccc(Oc3nc(OC)cc(OC)n3)c(C(=O)OCc3ccccc3)c12 | 128 to 132 °C |
| CN(C)C(=C(C#N)C#N)N(C)N=Cc1ccccc1 | 127 to 128 °C |
| CC(CO)NC(=O)CCCCC1CCSS1 (stereo unspecified) | 52 to 56 °C |
